Test system: fine lines, wrinkles in the outer canthus of the eyes (crow's feet area)
Assay: Panelist self-assessment questionnaire, Example 1
Assay type: in vivo, human
Design: key to Q2 appearance of my skin around either of my eyes, Score: 1: Better; 2: Little better; 3: Same; 4: Little worse; 5: Worse
Conditions: for Q3 how do you feel about the treated area surrounding your eyes and the appearance of wrinkles, % Responders Score 3: Score 3 = Neither satisfied or dissatisfied; for Q2 appearance of my skin around either of my eyes, % Responders Score 3: Score 3 = Same; for Q4 any discomfort, other than slight tingling, in the treated area during the study, % Responders Score 3: Score 3 = Yes, occasional discomfort lasting more than one hour; for Q1 My wrinkles in the eye area have improved, % Responders Score 4: Score 4 = Disagree; for Q3 how do you feel about the treated area surrounding your eyes and the appearance of wrinkles, % Responders Score 4: Score 4 = Dissatisfied; for Q2 appearance of my skin around either of my eyes, % Responders Score 4: Score 4 = Little worse; for Q4 any discomfort, other than slight tingling, in the treated area during the study, % Responders Score 4: Score 4 = Yes, every day lasting less than an hour; for Q1 My wrinkles in the eye area have improved, % Responders Score 5: Score 5 = Strongly disagree; for Q3 how do you feel about the treated area surrounding your eyes and the appearance of wrinkles, % Responders Score 5: Score 5 = Very Dissatisfied; for Q2 appearance of my skin around either of my eyes, % Responders Score 5: Score 5 = Worse; for Q4 any discomfort, other than slight tingling, in the treated area during the study, % Responders Score 5: Score 5 = Yes, everyday lasting more than an hour
Experimental: Three groups of women were recruited to evaluate and compare the efficacy of three anti-aging test products (targeting the periorbital eye area) intended to reduce the appearance of fine lines, wrinkles in the outer canthus of the eyes (crow's feet area) over a 12 week period. Wrinkle assessment was conducted instrumentally using a Visioscan image analysis system. Effectiveness of the test product was evaluated using panelist self-assessment via questionnaire responses comprised of 3-4 questions (Q1, Q2, Q3 & Q4). Each stage in the progression of treatments was photographically documented using a High Resolution Scientifically Matched Photography technique. Image analysis was utilized to quantify changes in fine lines and crow's feet condition observed in the Scientifically Matched Photographs.
Subject Selection: • Number: Six subjects (two per group) to complete the study. • Sex: Females • Race: Caucasian/Asian/Hispanic • Age Range: 40 through 60 years old
Test samples: • Topical 0.15% of Compound #222 in Oil (a 50/50 mixture of • Propylene Glycol Dicaprylate/Dicaprate and Caprylic/Capric Triglyceride) (Cohort 1) • Topical 0.15% of Compound #222 in PEG400 (Cohort 2) • Topical 0.05% of Compound #222 in PEG400 (Cohort 3)
All subjects were instructed to use the test material once a day, as part of their daily skin care routine. Immediately following baseline evaluations, the subjects were issued the product with the following instructions:
GROUP 1—Compound #222 Topical 0.15% in oil (Cohort 1): The subjects were instructed to hold the bottle at an angle such that the roller-ball was at bottom and apply the roller-ball to the periorbital area, including the crow's feet area, 2-3 times, starting from the area under the eye (and above the cheekbone) and moving up towards the outer tip of the eye-brow. After 2-3 rolls, they were able to see wetness on the treated area. This procedure was repeated for the other eye.
GROUPS 2 & 3 Compound #222 Topical 0.15% in PEG (Cohort 2) & Compound #222 Topical 0.05% in PEG (Cohort 3): The subjects were instructed to hold the dispenser upright with one hand and with the tip of the index finger on the pump (similar to holding a spray container), pour a small amount of the product into the palm of their other hand by pumping once or twice. The product was then applied on to the periorbital area, including the crow's feet area, of both eyes with their index finger.
[…] After acclimating to ambient conditions, High Resolution Scientifically Matched Photographs were be taken and biophysical measurements (Surface Evaluation of Living Skin via Visioscan) were repeated using the standard template to identify test sites on the face. In addition (during the acclimation period) all participants were be asked to fill out a self-assessment questionnaire.
The source data was Visioscan and PhotoGrammetrix Image Analysis readings along with subjective assessments, which were totaled and reported as average scores. Photographs were placed side by side as to compare the photographs of before and after application of the test product in the eye area. Wrinkle reduction analysis source data consisted of crow's feet area quantification in relative units (px), collected at baseline and, the week 2, 4, 8 and 12 evaluations. The data obtained via Visioscan and from PhotoGrammetrix Image Analysis was quoted as % differences from baseline at each of the previously described time points. A paired t-test analysis was conducted in order to compare the results of post test product application measurements to baseline measurements where applicable. Statistical significance was established if p≤(α=0.05) was calculated.

[1] = Day 7, Topical 0.05% in PEG (Cohort 3)
[2] = Day 7, Topical 0.15% in Oil (Cohort 1)
[3] = Day 7, Topical 0.15% in PEG (Cohort 2)
[4] = Day 14, Topical 0.05% in PEG (Cohort 3)
[5] = Day 14, Topical 0.15% in Oil (Cohort 1)
[6] = Day 14, Topical 0.15% in PEG (Cohort 2)

## O=C(CCC(=O)c1ccc2c(c1)OCO2)c1ccccc1 [#222]
[1]
  Q3 how do you feel about the treated area surrounding your eyes and the appearance of wrinkles, % Responders Score 3: 50%
  Q2 appearance of my skin around either of my eyes, % Responders Score 3: 0%
  Q4 any discomfort, other than slight tingling, in the treated area during the study, % Responders Score 3: 0%
  Q1 My wrinkles in the eye area have improved, % Responders Score 4: 0%
  Q3 how do you feel about the treated area surrounding your eyes and the appearance of wrinkles, % Responders Score 4: 0%
  Q2 appearance of my skin around either of my eyes, % Responders Score 4: 0%
  Q4 any discomfort, other than slight tingling, in the treated area during the study, % Responders Score 4: 0%
  Q1 My wrinkles in the eye area have improved, % Responders Score 5: 0%
  Q3 how do you feel about the treated area surrounding your eyes and the appearance of wrinkles, % Responders Score 5: 0%
  Q2 appearance of my skin around either of my eyes, % Responders Score 5: 0%
  Q4 any discomfort, other than slight tingling, in the treated area during the study, % Responders Score 5: 0%
[2]
  Q3 how do you feel about the treated area surrounding your eyes and the appearance of wrinkles, % Responders Score 3: 50%
  Q2 appearance of my skin around either of my eyes, % Responders Score 3: 50%
  Q4 any discomfort, other than slight tingling, in the treated area during the study, % Responders Score 3: 0%
  Q1 My wrinkles in the eye area have improved, % Responders Score 4: 0%
  Q3 how do you feel about the treated area surrounding your eyes and the appearance of wrinkles, % Responders Score 4: 0%
  Q2 appearance of my skin around either of my eyes, % Responders Score 4: 0%
  Q4 any discomfort, other than slight tingling, in the treated area during the study, % Responders Score 4: 0%
  Q1 My wrinkles in the eye area have improved, % Responders Score 5: 50%
  Q3 how do you feel about the treated area surrounding your eyes and the appearance of wrinkles, % Responders Score 5: 0%
  Q2 appearance of my skin around either of my eyes, % Responders Score 5: 0%
  Q4 any discomfort, other than slight tingling, in the treated area during the study, % Responders Score 5: 0%
[3]
  Q3 how do you feel about the treated area surrounding your eyes and the appearance of wrinkles, % Responders Score 3: 50%
  Q2 appearance of my skin around either of my eyes, % Responders Score 3: 50%
  Q4 any discomfort, other than slight tingling, in the treated area during the study, % Responders Score 3: 0%
  Q1 My wrinkles in the eye area have improved, % Responders Score 4: 50%
  Q3 how do you feel about the treated area surrounding your eyes and the appearance of wrinkles, % Responders Score 4: 0%
  Q2 appearance of my skin around either of my eyes, % Responders Score 4: 0%
  Q4 any discomfort, other than slight tingling, in the treated area during the study, % Responders Score 4: 0%
  Q1 My wrinkles in the eye area have improved, % Responders Score 5: 0%
  Q3 how do you feel about the treated area surrounding your eyes and the appearance of wrinkles, % Responders Score 5: 0%
  Q2 appearance of my skin around either of my eyes, % Responders Score 5: 0%
  Q4 any discomfort, other than slight tingling, in the treated area during the study, % Responders Score 5: 0%
[4]
  Q3 how do you feel about the treated area surrounding your eyes and the appearance of wrinkles, % Responders Score 3: 0%
  Q2 appearance of my skin around either of my eyes, % Responders Score 3: 0%
  Q4 any discomfort, other than slight tingling, in the treated area during the study, % Responders Score 3: 0%
  Q1 My wrinkles in the eye area have improved, % Responders Score 4: 0%
  Q3 how do you feel about the treated area surrounding your eyes and the appearance of wrinkles, % Responders Score 4: 0%
  Q2 appearance of my skin around either of my eyes, % Responders Score 4: 0%
  Q4 any discomfort, other than slight tingling, in the treated area during the study, % Responders Score 4: 0%
  Q1 My wrinkles in the eye area have improved, % Responders Score 5: 0%
  Q3 how do you feel about the treated area surrounding your eyes and the appearance of wrinkles, % Responders Score 5: 0%
  Q2 appearance of my skin around either of my eyes, % Responders Score 5: 0%
  Q4 any discomfort, other than slight tingling, in the treated area during the study, % Responders Score 5: 0%
[5]
  Q3 how do you feel about the treated area surrounding your eyes and the appearance of wrinkles, % Responders Score 3: 50%
  Q2 appearance of my skin around either of my eyes, % Responders Score 3: 50%
  Q4 any discomfort, other than slight tingling, in the treated area during the study, % Responders Score 3: 0%
  Q1 My wrinkles in the eye area have improved, % Responders Score 4: 50%
  Q3 how do you feel about the treated area surrounding your eyes and the appearance of wrinkles, % Responders Score 4: 0%
  Q2 appearance of my skin around either of my eyes, % Responders Score 4: 0%
  Q4 any discomfort, other than slight tingling, in the treated area during the study, % Responders Score 4: 0%
  Q1 My wrinkles in the eye area have improved, % Responders Score 5: 0%
  Q3 how do you feel about the treated area surrounding your eyes and the appearance of wrinkles, % Responders Score 5: 0%
  Q2 appearance of my skin around either of my eyes, % Responders Score 5: 0%
  Q4 any discomfort, other than slight tingling, in the treated area during the study, % Responders Score 5: 0%
[6]
  Q3 how do you feel about the treated area surrounding your eyes and the appearance of wrinkles, % Responders Score 3: 0%
  Q2 appearance of my skin around either of my eyes, % Responders Score 3: 50%
  Q4 any discomfort, other than slight tingling, in the treated area during the study, % Responders Score 3: 0%
  Q1 My wrinkles in the eye area have improved, % Responders Score 4: 50%
  Q3 how do you feel about the treated area surrounding your eyes and the appearance of wrinkles, % Responders Score 4: 50%
  Q2 appearance of my skin around either of my eyes, % Responders Score 4: 0%
  Q4 any discomfort, other than slight tingling, in the treated area during the study, % Responders Score 4: 50%
  Q1 My wrinkles in the eye area have improved, % Responders Score 5: 0%
  Q3 how do you feel about the treated area surrounding your eyes and the appearance of wrinkles, % Responders Score 5: 0%
  Q2 appearance of my skin around either of my eyes, % Responders Score 5: 0%
  Q4 any discomfort, other than slight tingling, in the treated area during the study, % Responders Score 5: 0%
Subject #1, Day 7, Topical 0.15% in Oil (Cohort 1)
  Q2 appearance of my skin around either of my eyes, Score: 3
Subject #1, Day 14, Topical 0.15% in Oil (Cohort 1)
  Q2 appearance of my skin around either of my eyes, Score: 3
Subject #2, Day 7, Topical 0.15% in Oil (Cohort 1)
  Q2 appearance of my skin around either of my eyes, Score: 2
Subject #2, Day 14, Topical 0.15% in Oil (Cohort 1)
  Q2 appearance of my skin around either of my eyes, Score: 2
Subject #3, Day 7, Topical 0.15% in PEG (Cohort 2)
  Q2 appearance of my skin around either of my eyes, Score: 2
Subject #3, Day 14, Topical 0.15% in PEG (Cohort 2)
  Q2 appearance of my skin around either of my eyes, Score: 2
Subject #4, Day 7, Topical 0.15% in PEG (Cohort 2)
  Q2 appearance of my skin around either of my eyes, Score: 3
Subject #4, Day 14, Topical 0.15% in PEG (Cohort 2)
  Q2 appearance of my skin around either of my eyes, Score: 3
Subject #5, Day 7, Topical 0.05% in PEG (Cohort 3)
  Q2 appearance of my skin around either of my eyes, Score: 1
Subject #5, Day 14, Topical 0.05% in PEG (Cohort 3)
  Q2 appearance of my skin around either of my eyes, Score: 1
Subject #6, Day 7, Topical 0.05% in PEG (Cohort 3)
  Q2 appearance of my skin around either of my eyes, Score: 2
Subject #6, Day 14, Topical 0.05% in PEG (Cohort 3)
  Q2 appearance of my skin around either of my eyes, Score: 2
